Here are results for four molecules from publication PMC9606270, “First direct evidence for direct cell-membrane penetrations of polycationic homopoly(amino acid)s produced by bacteria” (Communications Biology, 2022).

The test system of data set [1] is peptidases/proteinases. As to conditions: due to isopeptide-bond linkages; cited from earlier work. An excerpt:
In this context, a bacterium-origin polycationic polymer, ε-PαL (1) (Fig. 1a), has garnered increasing interest in recent years as an alternative to canonical cationic CPPs. […] However, the cati ... || Practical intracellular delivery of biological macromolecules (biopharmaceuticals) would dramatically transform therapeutic approaches and foster experimental breakthroughs because numerous potential drug targets (cytokines, growth factors, and signal transduction proteins) are in the cell interior[44]. CPPs are among the most promising strategies, and CPP-driven technology currently revolves around natural and synthetic eupeptides. Poly-L/D-arginine[13]–[15], poly-L-histidine[45], and poly-L/D-lysine[46], which were chemically or genetically produced, have been used as CPPs. To enable the del ...

The subject of data set [2] is HeLa cells. The following applies: cited from earlier work. An excerpt: page 5: Response to reviewers … Reviewer #1: Thank you so much for your valuable comments concerning our original manuscript. Your comment #1: The manuscript is well prepared and written except for the cytotoxicity of these polycationic isopeptides. […] However, we did n ...
For data set [3] the following is noted: cited from earlier work. From the text: (§1) In this context, a bacterium-origin polycationic polymer, ε-PαL (1) (Fig. 1a), has garnered increasing interest in recent years as an alternative to canonical cationic CPPs. […] However, the cati ...
Data set [4] concerns mammalian cells. The following applies: cited from earlier work.
Text: as §1

The conditions of data set [5]: cited from earlier work. An excerpt: To address the growing worldwide demand for CPPs, structurally and functionally distinct CPPs are required to circumvent the canonical CPP drawbacks such as cytotoxicity. This study, therefore, focused on the cytotoxicities of ε-PαL (1) against mammalian cells, while the nontoxicity of 1 in vivo has also been reported so that ε-PαL is used as a natural food preservative in several countries[1],[42]. However, the in vitro cytotoxicity of 1 in other cell lines has remained unclear. We therefore performed the MTT cell viability assay with 1 in K562, HepG2, and HEK293T cells in addition to HeLa ce ...
This is another data set of the same source.

The subject of data set [6] is Cre/loxP recombination in HEK293T cells. Nature of the data set: Cre/loxP recombination by intracellularly delivered Cre (reporter plasmid pmKO_loxP_mAG). In kind it is cell-based, human. The following applies: HEK293T transfected with pmKO_loxP_mAG; 50 μM, 60 min, 37°C, then 24 h culture; microscopy; mean ± s.d. (n = 3). An excerpt:
The synthetic DNA fragment carrying two loxP sequences, one TGA stop codon, and the ampicillin resistance gene (Amp^r gene) (Supplementary Table 30) was ligated with pmKO1-MC1 digested by Bam HI and Eco RI. The resulting plasmid, pmKO_loxP, was digested with Eco RI and Hind III and ligated with the mAG gene fragment amplified by the PCR primers (pmKO1_mAG-F and pmKO1_mAG-R, Supplementary Table 29) to yield the Cre activity reporter plasmid (pmKO_loxP_mAG).
HEK293T cells were transfected with the plasmid pmKO_loxP_mAG using FuGENE Transfection (Promega) according to the manufacturer’s specifications. The cells were washed with DMEM medium and then treated with 50 µM of ε-PαL-Cre (16) at 37 °C for 60 min. The cells were then washed with PBS, followed by 100 µg ml^−1 heparin in PBS, and then two more times with PBS. Finally, fresh DMEM containing 10% FBS was added and incubated at 37 °C for 24 h to express a fluorescent protein. The live-cell imaging was captured by fluorescence microscopy (Leica DMi8).

Turning to ε-oligo-L-β-lysine [Compound 2], the Proteolytic resistance result in data set [1] was “resistant to peptidases/proteinases”. Moreover, in data set [2], the “Cytotoxicity in HeLa cells” value was “no cytotoxicity”.
Regarding ε-poly-L-α-lysine [Compound 1], the Antimicrobial activities result in data set [3] is reported as “potent”. In data set [4], the Cytotoxicity entry is “nondetectable levels”. Besides, the Proteolytic resistance entry in data set [1] is listed as “proteolytic resistance”. Further, in data set [5], the Toxicity in vivo result is listed as “nontoxicity”.

B1: Cre: recombinant Cre recombinase (38 kDa), unconjugated control (protein, UniProt P06956 1-343, looked up)
Recombinase cre: MSNLLTVHQNLPALPVDATSDEVRKNLMDMFRDRQAFSEHTWKMLLSVCRSWAAWCKLNNRKWFPAEPEDVRDYLLYLQARGLAVKTIQQHLGQLNMLHRRSGLPRPSDSNAVSLVMRRIRKENVDAGERAKQALAFERTDFDQVRSLMENSDRCQDIRNLAFLGIAYNTLLRIAEIARIRVKDISRTDGGRMLIHIGRTKTLVSTAGVEKALSLGVTKLVERWISVSGVADDPNNYLFCRVRKNGVAAPSATSQLSTRALEGIFEATHRLIYGAKDDSGQRYLAWSGHSARVGAARDMARAGVSIPEIMQAGGWTNVNIVMNYIRNLDSETGAMVRLLEDGD
Turning to B1, in data set [6], the “Gene recombination ratio (green cells)” value is listed as 6.8% ± 0.1%.

B2: 16: Cre recombinase (38 kDa) conjugated with 8 (conjugate, UniProt P06956 1-343, looked up)
Recombinase cre: B1 Recombinase cre
modifications: conjugated to ε-poly-α-lysine polymer 8
With B2, the “Gene recombination ratio (green cells)” value in data set [6] was 65.6% ± 2.7%.
